Measurements: PMC3128661 (Bioorganic & medicinal chemistry letters, 2011)

Experiments:
[1] = system: E. coli (J-53); conditions: ref [4],[7]; cited from earlier work
[2] = system: Gram+ bacteria; conditions: ref [4],[7]; cited from earlier work
[3] = system: VRE; experiment: MIC determination in 96-well plates; format: cell-based, E. faecium; conditions: Enterococcus, read-out: MIC VRE

MIC [3] [µg/mL] | Compound | activity against the Gram- bacterium E. coli [1] | MIC values against various organisms [2] [µg/mL]
– | CCc1cc(Nc2cc(=O)n(CCCCO)c(=O)[nH]2)ccc1C [Compound 1, HB-EMAU] | inactive | 2.5 to 5
> 80 | CCc1cc(Nc2nc(O)c3ncn(CCCCO)c3n2)ccc1C [Compound 2b] | – | –
> 80 | CCc1cc(Nc2cc3c(ncn3CCCCN3CCOCC3)c(=O)[nH]2)ccc1C [Compound 21b] | – | –
> 80 | CCc1cc(Nc2cc3c(ncn3CCCCOC)c(=O)[nH]2)ccc1C [Compound 19b] | – | –
